Patent publication US20230398087A1, “APPLICATION OF BZP IN TREATMENT OF ISCHEMIC CARDIOVASCULAR AND CEREBRAL VASCULAR DISEASES” (priority 2020, published 2023)

Experiments:
[1] = test system: Bax/Bcl-2-cytochrome C-Caspase-3 mitochondrial apoptosis pathway; PI3K-p-Akt survival signaling pathway; test: Neuronal apoptosis after focal cerebral ischemia-reperfusion injury; set-up: species or system rats; settings: rat, in vivo
Description: 2.3 The Protective Effect of BZP on Neuronal Apoptosis after Focal Cerebral Ischemia-Reperfusion Injury in Rats: […]

[2] = test system: SYN, GAP-43, BDNF, GFAP, NOGO-A in the ischemic penumbra area; test: Neuroplasticity after focal cerebral ischemia-reperfusion injury; assay type: in vivo, rats
Description: 2.4 Effect of BZP on Neuroplasticity after Focal Cerebral Ischemia-Reperfusion Injury in Rats: […]

[3] = test system: global cerebral ischemia-reperfusion model in rats; test: Global cerebral ischemia-reperfusion injury in rats; assay type: in vivo
Description: BZP has a protective effect on cerebral ischemia-reperfusion injury and is effective when administered within 4 hours after ischemia, especially within 2 hours after ischemia.
2.5 The Protective Effect of BZP on Global Cerebral Ischemia-Reperfusion Injury in Rats:
BZP has a protective effect on acute global cerebral ischemia in rats, and its mechanism is to inhibit the inflammatory response and apoptosis of cells.

platelet aggregation = test: Ex vivo platelet aggregation; assay type: cell-based
experimental thrombosis = test: Experimental thrombosis in rats; assay type: in vivo; settings: for results of experimental thrombosis: significantly lower than model group (P<0.01)
neurobehavior = test: Safety pharmacology, neurobehavior; assay type: in vivo, rats
Description: These changes all recovered within 4 hours after drug withdrawal. The effective dose (12 mg/kg) of BZP to protect against ischemia-reperfusion injury in rats was lower than the dose (50 mg/kg) that caused neurological effects in rats.

cardiovascular system = test: Safety pharmacology, cardiovascular system; assay type: in vivo, dogs
Description: These changes all recovered within 0.5 hours after administration. The dose range of […] BZP has no effect on the II-lead ECG.

[4] = Tissue distribution, metabolism and excretion in animals; assay type: in vivo
Description: BNBP-OH is the main metabolite of BNBP (via NADPH coenzyme/CYP450).

[5] = Long-term toxicity test, 13 consecutive weeks, rats; assay type: in vivo
Description: These gradually returned to normal within 1 hour. […] The nervous system and respiratory system reactions in the long-term toxicity test were transient reactions, and the slight anemia and damage to the liver also recovered within the observation period.

[6] = test system: acute ischemic stroke patients; test: BZP1703 Phase II clinical trial in acute ischemic stroke; assay type: in vivo, human; settings: preliminary results
Description: The BZP1703 clinical trial is a multi-center, randomized, double-blind, placebo-controlled Phase II clinical trial. The purpose of the trial is to evaluate the safety and feasibility of different doses of BZP for injection compared with placebo in the treatment of acute ischemic stroke, and to preliminarily explore its effectiveness, so as to provide a basis for the design of Phase III clinical trial.
The trial plans to enroll 375 acute ischemic stroke patients aged 45 to 75 in China. […]
The primary safety endpoint of the BZP1703 trial is SAE, and the primary efficacy endpoint is the difference between the NIHSS score on day 14 and the baseline NIHSS score. Secondary safety endpoints include all-cause death, fatal bleeding and symptomatic intracranial hemorrhage, hemorrhagic transformation of cerebral infarction detected by head magnetic resonance imaging (MRI) on day 14, various adverse events; other bleeding events, AE, AEs of special interest (seizures, bradycardia, atrioventricular block, coagulation abnormalities, proteinuria, leukopenia), number and incidence of patients with new vascular events (ischemic stroke/hemorrhagic stroke/myocardial infarction/vascular death), vital signs, physical examination, laboratory tests (blood routine, blood biochemistry, urine routine, stool routine, coagulation function, etc.), 12-lead electrocardiogram (ECG) and other abnormalities. […]

[7] = compared with the model group (P<0.05)

CCCCC(O)c1ccc(Br)cc1C(=O)[O-].[Na+] (stereo not drawn) [BZP, sodium 5-bromo-2-(α-hydroxypentyl)benzoate]
Bax/Bcl-2-cytochrome C-Caspase-3 mitochondrial apoptosis pathway [1]: inhibiting
PI3K-p-Akt survival signaling pathway [1]: up-regulating
loss of nerve cells and apoptosis rate [1]: reduce the loss of nerve cells and reduce the apoptosis rate
NOGO-A expression ([2]; ischemic penumbra area): down-regulating
expression of SYN, GAP-43, BDNF and GFAP ([2]; ischemic penumbra area): increasing
nerve repair and recovery of motor function after cerebral ischemic injury ([2]; rat, in vivo): promote nerve repair
mortality and behavioral score within 24 hours ([3]; 12 mg/kg): reduce the mortality and behavioral score
mortalities within 24 hours ([3]; 3 and 12 mg/kg): lower than those in the model group and the NBP-K group
cell survival pathways (PI3K, P-Akt) ([3]; compared with the model group (P<0.01)): significantly increased
behavioral scores [3, 7]: significantly lower
expression of inflammatory circuit factors, apoptosis pathway factors, neuron necrosis rate and apoptosis rate in hippocampal CA1 region [3, 7]: significantly decreased
inhibition of ADP-induced platelet aggregation (platelet aggregation; ADP-induced): no inhibitory effects
IC50 (platelet aggregation; Platelet, AA-induced): 12 µM
inhibition of thrombin-induced platelet aggregation (platelet aggregation; thrombin-induced): no inhibitory effects
experimental thrombosis compared with the Br-NBP group (experimental thrombosis; high dose group (P<0.01)): weaker than that in the Br-NBP group
experimental thrombosis compared with the ASA group with the same molar dose (experimental thrombosis; high dose group (P>0.05)): no statistical difference
results of experimental thrombosis (experimental thrombosis; high dose group): 0.13±0.03
results of experimental thrombosis (experimental thrombosis; low dose group): 0.23±0.04
results of experimental thrombosis (experimental thrombosis; medium dose group): 0.18±0.02
time to recovery of neurobehavioral changes after drug withdrawal (neurobehavior; 50 and 100 mg/kg): ≤ 4 h
dose that caused neurological effects in rats (neurobehavior; single intravenous injection): 50 mg/kg
body temperature (neurobehavior; single intravenous injection 50 mg/kg and 100 mg/kg): decrease in body temperature
neurobehavioral signs at high dose (neurobehavior; single intravenous injection 100 mg/kg): decreased activity, erect hair, decreased frequency of defecation and urination and loss of pupillary stimulation reflex
time to recovery of blood pressure changes after administration (cardiovascular system; 50 mg/kg intravenous): ≤ 0.5 h
systolic blood pressure, diastolic blood pressure and mean arterial pressure (cardiovascular system; 0.25 hours after intravenous injection of 50 mg/kg): small transient increase
effect on the II-lead ECG (cardiovascular system; dose range of 5-50 mg): no effect
tissue distribution of BZP ([4]; at 110 minutes of administration): the fat content was the highest
detectability in the brain ([4]; eliminated quickly): cannot be detected after 50 minutes
concentration in the brain ([4]; in vivo): relatively low
conversion of BZP in vivo ([4]; not via NADPH coenzyme/CYP450): rapidly converted to BNBP
ability of tissues to transform BZP in vitro ([4]; spleen has the lowest ability): liver tissue has the strongest ability to transform BZP in vitro
tissue distribution of BZP ([4]; within 50 minutes of administration): higher in the lung tissue
time to return to normal ([5]; 150 mg/kg): ≤ 1 h
clinical signs at the end of each administration ([5]; 150 mg/kg intravenous once a day, 13 weeks): shortness of breath, prone position, occasional salivation, and disappearance of righting reflex
hematology, blood biochemistry, eye examination and urine routine ([5]; 13 weeks): no obvious abnormalities
NOAEL at 13 weeks ([5]; rat, in vivo, long-term toxicity test, read-out: NOAEL dose): 50 mg/kg
effectiveness, single dose of 200 mg compared with 100 mg ([6]; acute ischemic stroke patients): significantly more effective than a single dose of 100 mg
effectiveness, 200 mg twice daily compared with 100 mg twice daily ([6]; intravenous infusion for 14 days): significantly more effective than the dosage regimen of a single dose of 100 mg twice daily
